# Laboratory results reported in ChEMBL document CHEMBL6087449, “Identification of an Isoxazole Derivative as an Antitubercular Compound for Targeting the FadD Enzymes of Mycobacterium tuberculosis” (J Med Chem, 2025).
# Active and inactive are the calls of the source. No cut-off for these calls is given here.
# Legend:
# [1] = system: Mycobacterium tuberculosis; assay: Antitubercular activity against Mycobacterium tuberculosis by alamar blue assay; type: functional
# [2] = system: Mycobacterium tuberculosis; assay: Antitubercular activity against Mycobacterium tuberculosis H37Rv assessed as inhibition of bacterial growth incubated for 5 days by Alamar Blue based assay; type: functional, organism-based; conditions: 120 h
# [3] = system: Mycobacterium tuberculosis; assay: Antitubercular activity against Mycobacterium tuberculosis infected in mouse RAW264.7 cells assessed as reduction in colony forming units at 5 to 9 microg/ml incubated for 48 hrs; type: functional, organism-based; conditions: dose 5-9 µg/ml
# [4] = Toxicity in BALB/c mouse assessed as change in creatine level in serum at 2.5 mg/kg, ip measured for 14 days; type: organism-based; conditions: in vivo, 336 h, time 14 day
# [5] = biological target: T1, Long-chain-fatty-acid--AMP ligase FadD28 (Mycobacterium tuberculosis) (UniProt P9WQ59); assay: Inhibition of Mycobacterium tuberculosis H37Rv recombinant fadD28 at 200 uM relative to control
# T1 sequence (whole entry): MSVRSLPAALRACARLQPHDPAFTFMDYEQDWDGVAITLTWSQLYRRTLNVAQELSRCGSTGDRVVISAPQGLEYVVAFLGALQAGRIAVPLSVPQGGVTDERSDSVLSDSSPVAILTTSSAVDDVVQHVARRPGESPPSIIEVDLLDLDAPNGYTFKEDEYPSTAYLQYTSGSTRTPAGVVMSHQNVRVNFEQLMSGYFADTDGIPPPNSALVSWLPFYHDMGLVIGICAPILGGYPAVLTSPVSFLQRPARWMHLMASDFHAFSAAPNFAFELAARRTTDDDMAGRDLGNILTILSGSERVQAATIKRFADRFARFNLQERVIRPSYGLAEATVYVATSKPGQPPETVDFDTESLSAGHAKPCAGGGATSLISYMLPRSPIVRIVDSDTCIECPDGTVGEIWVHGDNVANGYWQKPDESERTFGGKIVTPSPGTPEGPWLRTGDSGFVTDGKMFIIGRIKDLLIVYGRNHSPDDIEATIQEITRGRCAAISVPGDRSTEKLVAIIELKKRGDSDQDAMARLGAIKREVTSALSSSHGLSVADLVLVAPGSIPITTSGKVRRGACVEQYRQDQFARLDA
# [6] = system: Mycobacterium tuberculosis; assay: Antitubercular activity against Mycobacterium tuberculosis H37Rv infected in BALB/c mouse chronic model assessed as reduction in tubercular granulomas at 2.5 mg/kg, ip measured after 4 weeks by H and E staining based analysis; type: functional, organism-based
# [7] = system: Mycobacterium tuberculosis; assay: Downregulation of hspX mRNA expression in Mycobacterium tuberculosis assessed as fold change by qRT-PCR analysis; type: functional
# [8] = system: Mycobacterium tuberculosis; assay: Antitubercular activity against Mycobacterium tuberculosis infected in human THP-1 cells assessed as reduction in colony forming units at 5 to 9 microg/ml incubated for 48 hrs; type: functional, organism-based; conditions: dose 5-9 µg/ml
# [9] = biological target: T2, Long-chain-fatty-acid--AMP ligase FadD32 (Mycobacterium tuberculosis (strain ATCC 25618 / H37Rv)) (UniProt O53580); assay: Inhibition of Mycobacterium tuberculosis H37Rv recombinant FadD32 upto 200 uM in presence of lauric acid by Michaelis-Menten plot analysis
# T2 sequence (whole entry): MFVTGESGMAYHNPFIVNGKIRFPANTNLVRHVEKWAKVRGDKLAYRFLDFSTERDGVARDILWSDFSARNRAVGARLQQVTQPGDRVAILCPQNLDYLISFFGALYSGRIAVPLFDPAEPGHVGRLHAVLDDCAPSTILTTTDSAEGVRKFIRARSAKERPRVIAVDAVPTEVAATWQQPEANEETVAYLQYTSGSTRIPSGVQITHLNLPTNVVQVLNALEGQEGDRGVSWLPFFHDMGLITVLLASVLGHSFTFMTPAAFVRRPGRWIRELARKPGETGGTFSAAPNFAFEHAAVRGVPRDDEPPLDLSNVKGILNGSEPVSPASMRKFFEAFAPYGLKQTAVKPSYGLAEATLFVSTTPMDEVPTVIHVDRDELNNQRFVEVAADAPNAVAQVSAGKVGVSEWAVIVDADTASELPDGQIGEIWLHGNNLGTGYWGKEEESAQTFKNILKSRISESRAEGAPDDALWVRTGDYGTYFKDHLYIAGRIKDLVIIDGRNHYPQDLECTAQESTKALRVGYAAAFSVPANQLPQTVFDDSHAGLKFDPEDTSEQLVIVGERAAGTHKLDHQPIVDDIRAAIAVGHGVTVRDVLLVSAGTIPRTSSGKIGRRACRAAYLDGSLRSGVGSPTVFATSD
# [10] = Toxicity in BALB/c mouse assessed as change in ALP level in serum at 2.5 mg/kg, ip measured for 14 days; type: organism-based; conditions: in vivo, 336 h, time 14 day
# [11] = system: Mycobacterium tuberculosis; assay: Antitubercular activity against Mycobacterium tuberculosis infected in human THP-1 cells assessed as reduction in colony forming units at 5 to 9 microg/ml incubated for 48 hrs in presence of ethambutol; type: functional, organism-based; conditions: dose 5-9 µg/ml
# [12] = system: Mycobacterium tuberculosis; assay: Antitubercular activity against Mycobacterium tuberculosis H37Rv assessed as inhibition of bacterial growth incubated for 5 days in presence of rifampicin by Alamar Blue based assay; type: functional, organism-based; conditions: time 5.0 day
# [13] = Toxicity in BALB/c mouse assessed as change in SGOT level in serum at 2.5 mg/kg, ip measured for 14 days; type: organism-based; conditions: in vivo, 336 h, time 14 day
# [14] = system: Mycobacterium tuberculosis; assay: Downregulation of CarD mRNA expression in Mycobacterium tuberculosis assessed as fold change by qRT-PCR analysis; type: functional
# RAW264.7 = assay: Cytotoxicity against mouse RAW264.7 cells assessed as cell viability at 25 microg/ml incubated for 24 hrs by MTT assay; type: toxicity, cell-based; conditions: raw264.7, 24 h, dose 25 µg/ml
# [15] = system: Mycobacterium tuberculosis; assay: Antitubercular activity against Mycobacterium tuberculosis infected in mouse RAW264.7 cells assessed as reduction in colony forming units at 5 to 9 microg/ml incubated for 48 hrs in presence of ethambutol; type: functional, organism-based; conditions: dose 5-9 µg/ml
# [16] = system: Mycobacterium tuberculosis; assay: Downregulation of fadD28 mRNA expression in Mycobacterium tuberculosis assessed as fold change by qRT-PCR analysis; type: functional
# [17] = system: Mycobacterium tuberculosis; assay: Antitubercular activity against Mycobacterium tuberculosis infected in mouse RAW264.7 cells assessed as reduction in colony forming units at 5 to 9 microg/ml incubated for 48 hrs in presence of rifampin; type: functional, organism-based; conditions: dose 5-9 µg/ml
# [18] = Toxicity in BALB/c mouse assessed as change in SGPT level in serum at 2.5 mg/kg, ip measured for 14 days; type: organism-based; conditions: in vivo, 336 h, time 14 day
# [19] = system: Mycobacterium tuberculosis; assay: Downregulation of ctpC mRNA expression in Mycobacterium tuberculosis assessed as fold change by qRT-PCR analysis; type: functional
# [20] = system: Mycobacterium tuberculosis; assay: Downregulation of PKS13 mRNA expression in Mycobacterium tuberculosis assessed as fold change by qRT-PCR analysis; type: functional
# [21] = system: Mycobacterium tuberculosis; assay: Downregulation of fadD32 mRNA expression in Mycobacterium tuberculosis assessed as fold change by qRT-PCR analysis; type: functional
# [22] = system: Mycobacterium tuberculosis; assay: Downregulation of papA mRNA expression in Mycobacterium tuberculosis assessed as fold change by qRT-PCR analysis; type: functional
# [23] = system: Mycobacterium tuberculosis; assay: Downregulation of efpA mRNA expression in Mycobacterium tuberculosis assessed as fold change by qRT-PCR analysis; type: functional
# [24] = system: Mycobacterium tuberculosis; assay: Downregulation of murE mRNA expression in Mycobacterium tuberculosis assessed as fold change by qRT-PCR analysis; type: functional
# [25] = system: Mycobacterium tuberculosis; assay: Antitubercular activity against Mycobacterium tuberculosis infected in human THP-1 cells assessed as reduction in colony forming units at 5 to 9 microg/ml incubated for 48 hrs in presence of isoniazid; type: functional, organism-based; conditions: dose 5-9 µg/ml
# [26] = biological target: T3, Long-chain-fatty-acid--AMP ligase FadD32 (Mycobacterium tuberculosis (strain ATCC 25618 / H37Rv), UniProt O53580); assay: Uncompetitive inhibition of Mycobacterium tuberculosis H37Rv recombinant FadD32 assessed as inhibition constant in presence of lauric acid by Lineweaver-burk plot analysis
# T3 sequence (O53580 whole entry): T2 sequence (whole entry)
# [27] = biological target: T2, Long-chain-fatty-acid--AMP ligase FadD32 (Mycobacterium tuberculosis (strain ATCC 25618 / H37Rv)); assay: Inhibition of Mycobacterium tuberculosis H37Rv recombinant fadD32 at 200 uM relative to control
# [28] = system: Mycobacterium tuberculosis; assay: Downregulation of IspD mRNA expression in Mycobacterium tuberculosis assessed as fold change by qRT-PCR analysis; type: functional
# [29] = system: Mycobacterium tuberculosis; assay: Downregulation of esxH mRNA expression in Mycobacterium tuberculosis assessed as fold change by qRT-PCR analysis; type: functional
# [30] = system: Mycobacterium tuberculosis; assay: Antitubercular activity against Mycobacterium tuberculosis infected in human THP-1 cells assessed as reduction in colony forming units at 5 to 9 microg/ml incubated for 48 hrs in presence of rifampin; type: functional, organism-based; conditions: dose 5-9 µg/ml
# [31] = system: Mycobacterium tuberculosis; assay: Antitubercular activity against Mycobacterium tuberculosis H37Rv assessed as inhibition of bacterial growth incubated for 5 days in presence of isoniazid by Alamar Blue based assay; type: functional, organism-based; conditions: time 5.0 day
# [32] = system: Mycobacterium tuberculosis; assay: Downregulation of groES mRNA expression in Mycobacterium tuberculosis assessed as fold change by qRT-PCR analysis; type: functional
# [33] = system: Mycolicibacterium smegmatis; assay: Antimycobacterial activity against Mycobacterium smegmatis assessed as inhibition of bacterial growth incubated for 5 days by Alamar Blue based assay; type: functional, organism-based; conditions: 120 h
# [34] = Toxicity in BALB/c mouse assessed as animal survival at 2.5 mg/kg, ip measured for 14 days; type: organism-based; conditions: in vivo, 336 h, time 14 day
# Escherichia coli = assay: Antibacterial activity against Escherichia coli assessed as inhibition of bacterial growth upto 200 microg/ml incubated for 5 days by Alamar Blue based assay; type: functional, organism-based; conditions: dose <= 200.0 µg/ml, time 5.0 day
# [35] = Toxicity in BALB/c mouse assessed as change in BUN level in serum at 2.5 mg/kg, ip measured for 14 days; type: organism-based; conditions: in vivo, 336 h, time 14 day
# [36] = Toxicity in BALB/c mouse assessed as body weight loss at 2.5 mg/kg, ip measured for 14 days; type: organism-based; conditions: in vivo, 336 h, time 14 day
# [37] = biological target: T3, Long-chain-fatty-acid--AMP ligase FadD32; assay: Partial noncompetitive inhibition of Mycobacterium tuberculosis H37Rv recombinant FadD32 assessed as inhibition constant in presence of ATP by Lineweaver-burk plot analysis
# [38] = system: Mycobacterium tuberculosis; assay: Antitubercular activity against Mycobacterium tuberculosis H37Rv infected in BALB/c mouse chronic model assessed as reduction in reduction in mycobacterial burden in lung at 2.5 mg/kg, ip measured after 21 to 25 days by H and E staining based analysis; type: functional, organism-based; conditions: time 21-25 day
# [39] = system: Mycobacterium tuberculosis; assay: Antitubercular activity against Mycobacterium tuberculosis infected in mouse RAW264.7 cells assessed as reduction in colony forming units at 5 to 9 microg/ml incubated for 48 hrs in presence of isoniazid; type: functional, organism-based; conditions: dose 5-9 µg/ml
# THP-1 = assay: Cytotoxicity against PMA-differentiated human THP-1 cells assessed as reduction in cell viability at 25 microg/ml incubated for 24 hrs by MTT assay; type: toxicity, cell-based; conditions: thp-1, 24 h, dose 25 µg/ml
compound,measurement,setting,value
Nc1ncnc2c1ncn2[C@@H]1O[C@H](COS(=O)(=O)NC(=O)c2ccc(O)cc2)[C@@H](O)[C@H]1O,MIC,[1],> 800 µM
COc1ccc(-c2onc(C(F)(F)F)c2-c2ccccc2)c(O)c1,IC50,[2],21.7 µg/mL
Cc1ccc(O)c(-c2cc(C(F)(F)C(F)F)no2)c1,IC50,[2],12.8 µg/mL
Oc1c(Br)cc(Br)cc1-c1cc(C(F)(F)F)no1,Activity,[3],Active
same,Activity,[4],Non-toxic
same,inhibition,[5],50%
same,Activity,[6],Active
same,fold change (FC),[7],2
same,Activity,[8],Active
same,inhibition,[9],Active
same,Activity,[10],Non-toxic
same,Activity,[11],Active
same,Activity,[12],Active
same,Activity,[13],Non-toxic
same,fold change (FC),[14],2
same,Activity,RAW264.7,Non-toxic
same,Activity,[15],Active
same,fold change (FC),[16],2
same,Activity,[17],Active
same,Activity,[18],Non-toxic
same,fold change (FC),[19],2
same,fold change (FC),[20],2
same,fold change (FC),[21],2
same,fold change (FC),[22],2
same,IC50,[2],4.8 µg/mL
same,fold change (FC),[23],2
same,fold change (FC),[24],2
same,Activity,[25],Active
same,Ki,[26],48.1 µM
same,inhibition,[27],95%
same,fold change (FC),[28],2
same,fold change (FC),[29],2
same,Activity,[30],Active
same,Activity,[31],Active
same,fold change (FC),[32],2
same,IC50,[33],20.8 µg/mL
same,Activity,[34],Non-toxic
same,Activity,Escherichia coli,inactive
same,Activity,[35],Non-toxic
same,Activity,[36],Non-toxic
same,Ki,[37],55.3 µM
same,Activity,[38],Active
same,Activity,[39],Active
same,Activity,THP-1,Non-toxic
